# No end group written: not given here.
# Tests used:
# Beas-2B cells = assay: Cell-surface HS / CS after enzyme treatment (anti-HS or anti-CS antibody, flow cytometry); assay type: cell-based; settings: 2 h, untreated cells 100%, n = 3; for decrease of the amount of HS on Beas-2B cell surfaces: 5 U/ml heparinase I or 2.4 U/ml heparinase III, anti-HS monoclonal antibody
# Description: Figure 3 HS-dependent ECP^32–-41 internalization. […] (B) Samples of wild-type and mutant CHO cells were each incubated with 5 µM FITC-ECP^32–41 at 37°C for 1 h and then subjected to flow cytometry. (C) Samples of wild-type and mutant CHO cells were incubated with 5 µM FITC-ECP^32–41 at 37°C for 1 h., then washed twice with 1 ml PBS, and fixed for CLSM. Nuclei were stained with Hoechst 34850. Scale bar: 20 µm. (D) Beas-2B cells were treated with heparinase I, heparinase III, or chondroitinase ABC for 2 h prior to incubation with 5 µM FITC-ECP^32–41 at 37°C for 1 h. […] Untreated cells served as the controls. The fluorescence of cells treated with FITC-ECP^32–41 was set to 100%. […] (E) Beas-2B cells were treated with heparinase I, heparinase III, or chondroitinase ABC for 2 h. […] Untreated cells served as the control. The fluorescence of the untreated cells was set to 100%.
# To verify that selective cell-surface polysaccharides had been enzymatically removed, the treated cells were subsequently incubated with anti-HS or anti-CS monoclonal antibodies. As expected, heparinase I and heparinase III had decreased the amount of HS on Beas-2B cell surfaces by 48% and 61%, respectively (Figure 3E, left panel), and chondroitinase ABC removed 72% of the cell-surface CS (Figure 3E, right panel). The HS that remained on Beas-2B cell surface accounted for the observed ECP^32–41 internalization into heparinase-treated cells. Conversely, even though 70% of the initial cell-surface CS had been removed, ECP^32–41 internalization was hardly affected–thus as concluded above, HS, rather than CS, is responsible for ECP^32–41 internalization.
# Beas-2B cells (3.0×10^5/well) were incubated with RPMI 1640 medium overnight in six-well plates and then treated with 5 U/ml of heparinase I, 2.4 U/ml of heparinase III, or 10 U/ml of chondroitinase ABC (Sigma-Aldrich) at 37°C for 2 h. After a PBS wash, the cells were incubated with FITC-ECP^32–41 and assayed for internalization of the peptide by flow cytometry as described above.
# AGS cells = assay: Cell viability assay (MTT); assay type: cell-based, human; settings: 24 h
# From the text: (§1) The cell viability untreated cells was set to 100%.
# Caco-2 cells = assay: Cell viability assay (MTT); assay type: cell-based, human; settings: 24 h
# From the text: as §1
substance,measurement,setting,value
heparinase III,decrease of the amount of HS on Beas-2B cell surfaces,Beas-2B cells,61%
heparinase I,decrease of the amount of HS on Beas-2B cell surfaces,Beas-2B cells,48%
chondroitinase ABC,cell-surface CS removed,"Beas-2B cells; 10 U/ml chondroitinase ABC, anti-CS monoclonal antibody",72%
KLAKLAKKLAKLAKNYRWRCKNQN [KLA-ECP^32–41],EC50 fold higher than that of KLA-TAT47–57,AGS cells,2.42 fold
same,EC50 fold higher than that of KLA-TAT47–57,Caco-2 cells,1.6 fold

# Reference: publication PMC3587609, “A Novel Cell-Penetrating Peptide Derived from Human Eosinophil Cationic Protein” (PLoS ONE, 2013)
